According to patent publication US20240228458A1, “PYRIMIDINE DERIVATIVE HAVING PROTEIN KINASE INHIBITORY ACTIVITY, AND THERAPEUTIC PHARMACEUTICAL COMPOSITION COMPRISING SAME” (THERAPEX CO., LTD., priority 2021, published 2024):

Key:
Type in all cases: cell-based
[1] = system: Ba/F3 cells expressing EGFR-wt; test: Growth inhibition (GI50) of Ba/F3 cells expressing EGFR-wt, Celltiter glo; details: Mus musculus, BaF3, 72 h
Summary of the method: (§1)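 We seed Ba/F3 transfectants at 100,000 cells/ml, dose them with ten 4-fold compound dilutions (2 mM top stock, 0.5% DMSO) after 4 h, and culture for 72 h at 37 °C. CellTiter-Glo then reports viable cell number, from which the GI50 is fitted.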

[2] = system: Ba/F3 cells expressing del19/T790M (EGFR-DT); test: Growth inhibition (GI50) of Ba/F3 cells expressing del19/T790M (EGFR-DT), Celltiter glo; details: Mus musculus, BaF3, 72 h
Method: (§2) In this experimental example, a determination was made as to whether the compounds prepared in Examples 1-283 have the ability to inhibit the growth of Ba/F3 cells expressing EGFR-wt, del19/T790M/C797S (EGFR-DTC), L858R/T790M/C797S (EGFR-LTC), del19/T790M (EGFR-DT), and L858R/T790M (EGFR-LT) variants.
(§3) The parental Ba/F3 cell line is a population of cells that are not introduced with EGFR variants. Specifically, 100 μl of a cell line expressing each variant was plated in a 96-well plate at a density of 100,000 cells/ml. 10-point, 4-fold serial dilutions of each compound were prepared, starting at 2 mM. After 4 h, 0.5 μl of the compound (0.5% DMSO) was added, followed by incubation at 37° C. and 5% CO2 for 72 h. After incubation, the number of viable cells was measured using a Celltiter glo assay kit (Promega) and the GI50 of the compound was determined. The term “GI50” refers to the molar concentration (μM) of the compound required for 50% growth inhibition of cells.

[3] = system: Ba/F3 cells expressing L858R/T790M/C797S (EGFR-LTC); test: Growth inhibition (GI50) of Ba/F3 cells expressing L858R/T790M/C797S (EGFR-LTC), Celltiter glo; details: Mus musculus, BaF3, 72 h
Summary of the method: as §1

[4] = system: Ba/F3 cells expressing del19/T790M/C797S (EGFR-DTC); test: Growth inhibition (GI50) of Ba/F3 cells expressing del19/T790M/C797S (EGFR-DTC), Celltiter glo; details: Mus musculus, BaF3, 72 h
Summary of the method: as §1

[5] = system: Ba/F3 cells expressing L858R/T790M (EGFR-LT); test: Growth inhibition (GI50) of Ba/F3 cells expressing L858R/T790M (EGFR-LT), Celltiter glo; details: Mus musculus, BaF3, 72 h
Method: as §2, §3

[6] = system: parental Ba/F3 cell line; test: Growth inhibition (GI50) of the parental Ba/F3 cell line (not introduced with EGFR variants), Celltiter glo; details: Mus musculus, BaF3, 72 h, parental Ba/F3 cells
Summary of the method: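 Parental Ba/F3 cells (100,000 cells/ml) were treated with 10-point, 4-fold compound dilutions (0.5% DMSO; top stock 2 mM) for 72 h at 37 °C, 5% CO2. Viability was read by CellTiter-Glo; GI50 is the concentration (μM) giving 50% growth inhibition.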

GI50 [1] [nM]	GI50 [2] [nM]	GI50 [3] [nM]	GI50 [4] [nM]	GI50 [5] [nM]	SMILES	GI50 [6] [nM]
2000 to 10000	25 to 100	500 to 2000	500 to 2000	2000 to 10000	COc1nc(N2CCN(C3COC3)CC2)ccc1Nc1ncc(Cl)c(Nc2ccc(F)cc2NS(C)(=O)=O)n1 [Example 22, N-(2-((5-chloro-2-((2-methoxy-6-(4-(oxetan-3-yl)piperazin-1-yl)pyridin-3-yl)amino)pyrimidin-4-yl)amino)-5-fluorophenyl)methanesulfonamide]	500 to 2000
100 to 500	100 to 500	100 to 500	100 to 500	500 to 2000	COc1nc(N2CCC(N(C)C)C2)ccc1Nc1ncc(Cl)c(Nc2ccc(F)cc2NS(C)(=O)=O)n1 (stereo not drawn) [Example 23, N-(2-((5-chloro-2-((6-(3-(dimethylamino)pyrrolidin-1-yl)-2-methoxypyridin-3-yl)amino)pyrimidin-4-yl)amino)-5-fluorophenyl)methanesulfonamide]	100 to 500
100 to 500	25 to 100	25 to 100	25 to 100	100 to 500	COc1cc(N2CCC(N3CCCN(C)CC3)CC2)c(C)cc1Nc1ncc(Br)c(Nc2ccc(F)cc2NS(C)(=O)=O)n1 [Example 38, N-(2-((5-bromo-2-((2-methoxy-5-methyl-4-(4-(4-methyl-1,4-diazepan-1-yl)piperidin-1-yl)phenyl)amino)pyrimidin-4-yl)amino)-5-fluorophenyl)methanesulfonamide]	500 to 2000
100 to 500	100 to 500	1 to 25	1 to 25	25 to 100	COc1cc(N2CCC(N3CCCC(N(C)C)C3)CC2)c(C)cc1Nc1ncc(Br)c(Nc2ccc(F)cc2NS(C)(=O)=O)n1 (stereo not drawn) [Example 39, N-(2-((5-bromo-2-((4-(3-(dimethylamino)-[1,4′-bipiperidin]-1′-yl)-2-methoxy-5-methylphenyl)amino)pyrimidin-4-yl)amino)-5-fluorophenyl)methanesulfonamide]	500 to 2000
500 to 2000	25 to 100	25 to 100	25 to 100	100 to 500	Cc1cc(Nc2ncc(Br)c(Nc3ccc(F)cc3NS(C)(=O)=O)n2)c(Cl)cc1N1CCC(N2CCCN(C)CC2)CC1 [Example 44, N-(2-((5-bromo-2-((2-chloro-5-methyl-4-(4-(4-methyl-1,4-diazepan-1-yl)piperidin-1-yl)phenyl)amino)pyrimidin-4-yl)amino)-5-fluorophenyl)methanesulfonamide]	500 to 2000
500 to 2000	25 to 100	25 to 100	25 to 100	100 to 500	Cc1cc(Nc2ncc(Br)c(Nc3ccc(F)cc3NS(C)(=O)=O)n2)c(Cl)cc1N1CCC(N2CCCC(N(C)C)C2)CC1 (stereo not drawn) [Example 45]	500 to 2000
500 to 2000	100 to 500	500 to 2000	500 to 2000	500 to 2000	CNS(=O)(=O)c1ccccc1Nc1nc(Nc2ccc(N3CCN(CCO)CC3)nc2OC)ncc1Cl [Example 56, 2-((5-chloro-2-((6-(4-(2-hydroxyethyl)piperazin-1-yl)-2-methoxypyridin-3-yl)amino)pyrimidin-4-yl)amino)-N-methylbenzenesulfonamide]	2000 to 10000
500 to 2000	100 to 500	500 to 2000	500 to 2000	500 to 2000	CNS(=O)(=O)c1ccccc1Nc1nc(Nc2ccc(N3CCC(N(C)C)C3)nc2OC)ncc1Cl (stereo not drawn) [Example 57, 2-((5-chloro-2-((6-(3-(dimethylamino)pyrrolidin-1-yl)-2-methoxypyridin-3-yl)amino)pyrimidin-4-yl)amino)-N-methylbenzenesulfonamide]	500 to 2000
100 to 500	100 to 500	100 to 500	100 to 500	500 to 2000	CNS(=O)(=O)c1ccccc1Nc1nc(Nc2cc(C)c(N3CCC(N4CCN(C)CC4)CC3)nc2OC)ncc1Cl [Example 58, 2-((5-chloro-2-((2-methoxy-5-methyl-6-(4-(4-methylpiperazin-1-yl)piperidin-1-yl)pyridin-3-yl)amino)pyrimidin-4-yl)amino)-N-methylbenzenesulfonamide]	100 to 500
100 to 500	100 to 500	25 to 100	25 to 100	100 to 500	CC(=O)Nc1ccc(Cl)cc1Nc1nc(Nc2ccc(N3CCC(N4CCN(C)CC4)CC3)c(F)c2)ncc1Cl [Example 67, N-(4-chloro-2-((5-chloro-2-((3-fluoro-4-(4-(4-methylpiperazin-1-yl)piperidin-1-yl)phenyl)amino)pyrimidin-4-yl)amino)phenyl)acetamide]	2000 to 10000
100 to 500	25 to 100	25 to 100	25 to 100	25 to 100	CC(=O)Nc1ccccc1Nc1nc(Nc2cnc(N3CCC(N4CCN(C)CC4)CC3)c(F)c2)ncc1Cl [Example 70, N-(2-((5-chloro-2-((5-fluoro-6-(4-(4-methylpiperazin-1-yl)piperidin-1-yl)pyridin-3-yl)-amino)pyrimidin-4-yl)amino)phenyl)acetamide]	500 to 2000
100 to 500	1 to 25	1 to 25	1 to 25	1 to 25	COc1cc(N2CCC(N3CCN(C)CC3)CC2)c(C)cc1Nc1ncc(Cl)c(Nc2cc(Cl)ccc2NS(C)(=O)=O)n1 [Example 80, N-(4-chloro-2-((5-chloro-2-((2-methoxy-5-methyl-4-(4-(4-methylpiperazin-1-yl)piperidin-1-yl)phenyl)amino)pyrimidin-4-yl)amino)phenyl)methanesulfonamide]	2000 to 10000
100 to 500	1 to 25	1 to 25	1 to 25	1 to 25	COc1cc(N2CCC(N3CCN(C)CC3)CC2)c(C)cc1Nc1ncc(Br)c(Nc2cc(Cl)ccc2NS(C)(=O)=O)n1 [Example 85]	500 to 2000
500 to 2000	1 to 25	1 to 25	25 to 100	25 to 100	COc1nc(N2CCC(N3CCN(C)CC3)CC2)c(C)cc1Nc1ncc(Br)c(Nc2cc(Cl)ccc2NS(C)(=O)=O)n1 [Example 86, N-(2-((5-bromo-2-((2-methoxy-5-methyl-6-(4-(4-methylpiperazin-1-yl)piperidin-1-yl)pyridin-3-yl)amino)pyrimidin-4-yl)amino)-4-chlorophenyl)methanesulfonamide]	2000 to 10000
100 to 500	25 to 100	25 to 100	25 to 100	25 to 100	CN1CCN(C2CCN(c3ccc(Nc4ncc(Br)c(Nc5cc(Cl)ccc5NS(C)(=O)=O)n4)cc3F)CC2)CC1 [Example 87, N-(2-((5-bromo-2-((3-fluoro-4-(4-(4-methylpiperazin-1-yl)piperidin-1-yl)phenyl)amino)pyrimidin-4-yl)amino)-4-chlorophenyl)methanesulfonamide]	100 to 500
100 to 500	1 to 25	1 to 25	1 to 25	1 to 25	COc1cc(N2CCC(N3CCN(C)CC3)CC2)c(Cl)cc1Nc1ncc(Br)c(Nc2cc(Cl)ccc2NS(C)(=O)=O)n1 [Example 88, N-(2-((5-bromo-2-((5-chloro-2-methoxy-4-(4-(4-methylpiperazin-1-yl)piperidin-1-yl)phenyl)amino)pyrimidin-4-yl)amino)-4-chlorophenyl)methanesulfonamide]	500 to 2000
